The values below come from patent US20260374731A1, “ANTIMICROBIAL CONJUGATED OLIGOELECTROLYTES AS BROAD-SPECTRUM ANTIBIOTICS” (The Regents of the University of California, priority 2023, published 2026).

The structures appear in SMILES notation.

Data set [1] can be described thus: Hydrophobicity (comparison; RP-HPLC retention times in Table 1). The class given is physicochemical. From the text: The MIC and cytotoxicity results for previously-described quaternary ammonium COEs COE2-3C, COE2-3C-C4butyl, and COE2-3C-C4hexyl are consistent with previous data (See Limwongyut et al., Chem. Sci. (2020) 11 (31): 8138-8144).
In data set [2] the test system is all tested bacterial strains. In words: Susceptibility test, comparison over all tested bacterial strains. Type of data set: cell-based, Gram-positive and Gram-negative bacteria. As for the experimental part: (§1) The minimum inhibitory concentration (MIC) was determined according to the Clinical and Laboratory Standards Institute (CLSI) guidelines by broth dilution. Bacteria were cultured in an appropriate medium (such as Cation-Adjusted Muller Hinton Broth) for 6-12 hours and diluted into same medium containing 2-fold serial dilutions of antibiotics. MIC values were derived after 14-20 hour incubation, and were the result of at least 3 independent determinations. The MIC study included Gram-negative strains Salmonella enterica Typhimurium (ST) ATCC 14028, E. coli (EC) ATCC 25922, Pseudomonas aeruginosa (PA) ATCC 27853, and Klebsiella pneumoniae (KPN) ATCC 700603 and Gram-positive strain S. aureus (SA) ATCC 259213.

Data set [3] concerns Klebsiella pneumoniae (KPN) ATCC 700603. Nature of the data set: Susceptibility test (MIC), broth dilution, Klebsiella pneumoniae. The class given is cell-based. To be noted: ATCC700603, Klebsiella pneumoniae ATCC 700603, 14-20 hour incubation, read-out: Minimum Inhibitory Concentration. How it is done:
as §1

In data set [4] the test system is HepG2 (ATCC HB-8065) cells. Nature of the data set: Cytotoxicity, MTT viability assay, HepG2. The class given is cell-based. As for the experimental part:
(§2) Cellular cytotoxicity was assessed using an MTT viability assay. HepG2 (ATCC HB-8065) cells were seeded at 1×10^4 cells/well in 96 well plates over night at 37 °C in DMEM supplemented with 10% FBS before use. Compounds were serially diluted with 2-fold dilution in culture media to afford a concentration ranging from 8 to 1024 μg/mL. After 24 h incubation, 10 μL of a 5 mg/mL solution of MTT was added to each well. After incubation for 2-4 h, upon discard of previous media, 100 μL of DMSO as solubilizing solution was added to each well, and absorbance at 570 nm were measured on a plate reader. Percent viability was determined by dividing background-corrected absorbance measurements by background corrected measurements for untreated cells. The lowest concentration for which percent viability was less than 50% was deemed the cytotoxicity IC50.
On the technique in general: Formazan colour is commonly taken as a measure of viable cells.

Data set [5] is described as follows: Cytotoxicity, MTT viability assay, HepG2. The class given is cell-based. To be noted: human, hepg2 cells; HepG2, MTT, 24 h incubation, 8 to 1024 μg/mL; lowest concentration with viability less than 50%; read-out: Cytotoxicity (IC50). How it is done: as §2
Data set [6] relates to Pseudomonas aeruginosa (PA) ATCC 27853. In words: Susceptibility test (MIC), broth dilution, Pseudomonas aeruginosa. The class given is cell-based. To be noted: ATCC27853, Pseudomonas aeruginosa ATCC 27853, 14-20 hour incubation, read-out: Minimum Inhibitory Concentration. How it is done:
as §1

For data set [7], the system named is Salmonella enterica Typhimurium (ST) ATCC 14028. Nature of the data set: Susceptibility test (MIC), broth dilution, Salmonella enterica Typhimurium. Type of data set: cell-based. To be noted: Salmonella enterica Typhimurium ATCC 14028, 14-20 hour incubation, read-out: Minimum Inhibitory Concentration. How it is done:
as §1

The subject of data set [8] is S. aureus (SA) ATCC 259213. In words: Susceptibility test (MIC), broth dilution, S. aureus. Type of data set: cell-based. To be noted: Staphylococcus aureus, ATCC259213, read-out: Minimum Inhibitory Concentration. As for the experimental part: as §1
(In general: In broth dilution the organism is exposed to a series of concentrations in liquid medium.)

The test system of data set [9] is E. coli (EC) ATCC 25922. Nature of the data set: Susceptibility test (MIC), broth dilution, E. coli. Type of data set: cell-based. The note with it: Escherichia coli, ATCC25922, E. coli ATCC 25922, 14-20 hour incubation, read-out: Minimum Inhibitory Concentration. How it is done: as §1
[10] abbreviates: Formula A compared with COE2-3C and COE2-3C-C4butyl.
Where [11] appears, read: Formula K and Formula A compared with each other.
The mark [12] stands for this setting: Formula C and Formula K compared with each other.
The mark [13] stands for this setting: Formula C compared with COE2-3C-C4butyl.

With `N=C(NCCCOc1cc(/C=C/c2ccc(/C=C/c3cc(OCCCNC(=N)C4CC4)cc(OCCCNC(=N)C4CC4)c3)cc2)cc(OCCCNC(=N)C2CC2)c1)C1CC1` [Formula A], the “hydrophobicity (comparison)” value in [1] (setting [10]) was “intermediate hydrophobicity”. Moreover, the “activity against all tested bacterial strains” value (from here on “activity”) is “considerably higher activity against all tested bacterial strains” in [2] (setting [10]) and “more active against all tested bacterial strains” in data set [2] (Formula A compared with Formula K). Moreover, the MIC in data set [3] stood at 4 µg/mL; in data set [6], 2 µg/mL; in data set [7], 1 µg/mL; in data set [8] it was 0.5 µg/mL; in data set [9], 1 µg/mL. In addition, the “cytotoxicity (comparison)” value in data set [4] (setting [11]) was “similar”. The CC50 at 24 h in [5] was above 1020 µg/mL.
Turning to `CN(CCCOc1cc(/C=C/c2ccc(/C=C/c3cc(OCCCN(C)C(=N)C4CC4)cc(OCCCN(C)C(=N)C4CC4)c3)cc2)cc(OCCCN(C)C(=N)C2CC2)c1)C(=N)C1CC1` [Formula B], the MIC in data set [3] worked out at 8 µg/mL; in data set [6], 8 µg/mL; in [7] it was 1 µg/mL; in data set [8], 1 µg/mL; in [9] it was 1 µg/mL. For the same compound, the CC50 at 24 h in data set [5] came to 1020 µg/mL.
With `CCCN(CCCOc1cc(/C=C/c2ccc(/C=C/c3cc(OCCCN(CCC)C(=N)C4CC4)cc(OCCCN(CCC)C(=N)C4CC4)c3)cc2)cc(OCCCN(CCC)C(=N)C2CC2)c1)C(=N)C1CC1` [Formula C], in [1] (setting [12]), the “hydrophobicity (comparison)” value is “different”. Further, the “activity” value in [2] (setting [12]) was “identical activities against all tested bacterial strains”; in [2] (setting [13]) it was “more active against all tested bacterial strains”. The MIC in data set [3] came out at 8 µg/mL; in [6], 32 µg/mL; in data set [7], 2 µg/mL; in data set [8], 1 µg/mL; in data set [9], 2 µg/mL. Also, the “cytotoxicity (comparison)” value is given as “different cytotoxicity” in [4] (setting [12]) and “similar” in data set [4] (setting [13]). The CC50 at 24 h in data set [5] was determined as 16 µg/mL.
In the case of `CCC(=N)N(C)CCCOc1cc(/C=C/c2ccc(/C=C/c3cc(OCCCN(C)C(=N)CC)cc(OCCCN(C)C(=N)CC)c3)cc2)cc(OCCCN(C)C(=N)CC)c1` [Formula D], the MIC was found to be 16 µg/mL in data set [3]; 8 µg/mL in [6]; 2 µg/mL in data set [7]; 1 µg/mL in [8]; 1 µg/mL in data set [9]. Besides, in data set [5], the CC50 at 24 h was above 1020 µg/mL.
In the case of `CCC(=N)N(CCCOc1cc(/C=C/c2ccc(/C=C/c3cc(OCCCN(C(=N)CC)C4CC4)cc(OCCCN(C(=N)CC)C4CC4)c3)cc2)cc(OCCCN(C(=N)CC)C2CC2)c1)C1CC1` [Formula E], the MIC in data set [3] is 8 µg/mL; in [6] it was 16 µg/mL; in [7], 2 µg/mL; in [8], 1 µg/mL; in data set [9], 2 µg/mL. Moreover, the CC50 at 24 h in data set [5] was determined as 128 µg/mL.
With `CCCN(CCCOc1cc(/C=C/c2ccc(/C=C/c3cc(OCCCN(CCC)C(=N)CC)cc(OCCCN(CCC)C(=N)CC)c3)cc2)cc(OCCCN(CCC)C(=N)CC)c1)C(=N)CC` [Formula F], the MIC in [3] stood at 8 µg/mL; in data set [6] it was 16 µg/mL; in data set [7] it was 2 µg/mL; in data set [8] it was 1 µg/mL; in data set [9], 2 µg/mL. In addition, the CC50 at 24 h in data set [5] is 32 µg/mL.
For `N=C(CC1CC1)NCCCOc1cc(/C=C/c2ccc(/C=C/c3cc(OCCCNC(=N)CC4CC4)cc(OCCCNC(=N)CC4CC4)c3)cc2)cc(OCCCNC(=N)CC2CC2)c1` [Formula G], the MIC is 4 µg/mL in [3]; 8 µg/mL in data set [6]; 2 µg/mL in [7]; 1 µg/mL in data set [8]; 2 µg/mL in data set [9]. Also, the CC50 at 24 h in data set [5] was determined as 256 µg/mL.
With `C/N=C(\C)NCCCOc1cc(/C=C/c2ccc(/C=C/c3cc(OCCCN/C(C)=N/C)cc(OCCCN/C(C)=N/C)c3)cc2)cc(OCCCN/C(C)=N/C)c1` [Formula H], the MIC in data set [3] is 16 µg/mL; in data set [6], 32 µg/mL; in [7], 2 µg/mL; in data set [8], 1 µg/mL; in data set [9] it was 2 µg/mL. The CC50 at 24 h in data set [5] is above 1020 µg/mL.
Turning to `C(=C\c1cc(OCCCNC2=NCCC2)cc(OCCCNC2=NCCC2)c1)/c1ccc(/C=C/c2cc(OCCCNC3=NCCC3)cc(OCCCNC3=NCCC3)c2)cc1` [Formula J], the MIC amounted to 16 µg/mL in [3]; 16 µg/mL in [6]; 2 µg/mL in data set [7]; 1 µg/mL in data set [8]; 1 µg/mL in [9]. The CC50 at 24 h in data set [5] was found to be 1020 µg/mL.
In the case of `C/C(=N\C1CC1)NCCCOc1cc(/C=C/c2ccc(/C=C/c3cc(OCCCN/C(C)=N/C4CC4)cc(OCCCN/C(C)=N/C4CC4)c3)cc2)cc(OCCCN/C(C)=N/C2CC2)c1` [Formula K], in data set [1] (setting [12]), the “hydrophobicity (comparison)” value is given as “different”. Moreover, the “activity” value in data set [2] (setting [12]) is “identical activities against all tested bacterial strains”. Moreover, the MIC was 8 µg/mL in data set [3]; 32 µg/mL in data set [6]; 2 µg/mL in data set [7]; 1 µg/mL in data set [8]; 2 µg/mL in [9]. Also, the entries for the “cytotoxicity (comparison)” value in data set [4] (setting [12]) and in [4] (setting [11]) were “different cytotoxicity” and “similar”, respectively. Moreover, in [5], the CC50 at 24 h is above 1020 µg/mL.
